pIC50: −log10 of the molar value. Where a name gives a salt, the structure may show the parent alone. Read-outs that look alike come from different tables or passages of the source.
Columns and labels:
[1] = system: T-47D cells; assay: In vitro T-47D cell viability assay (CellTiter-Glo); type: cell-based; settings: Homo sapiens, T47D, 168 h, 7 days incubation
Protocol: (§1) 1640 medium, fetal bovine serum, and penicillin/streptomycin antibiotics were purchased from Wisent. CellTiter-Glo (cell viability chemiluminescence assay reagent) was purchased from Promega. The T-47D cell line was purchased from Nanjing Cobioer Biosciences Co., Ltd. Envision multimode plate reader (PerkinElmer) was used.
T-47D cells were seeded into a white 384-well plate, with 40 µL of cell suspension containing 300 T-47D cells per well. The cell plate was incubated overnight in a CO2 incubator.
(§2) The test compound was serially diluted 5-fold using a multichannel pipette to the 8th concentration, i.e., from 2000 µM to […]. The experiment was set up with duplicate wells. 78 µL of culture medium was added to an intermediate plate, and 2 µL per well of the gradient-diluted compound was transferred to the corresponding position in the intermediate plate. After mixing, 10 µL per well of the mixture was transferred to the cell plate. The concentration range of the compound transferred to the cell plate was from 10 µM to 0.026 nM. The cell plate was incubated in a CO2 incubator for 7 days. Another cell plate was prepared, and the signal value was read on the day of compound addition to serve as the maximum value (Max in the equation below) for data analysis. 10 µL per well of CellTiter-Glo reagent was added to the cell plate, and the cell plate was incubated at room temperature for 10 minutes to stabilize the luminescence signal. The signal was read using the Envision multimode plate reader.
10 µL per well of CellTiter-Glo reagent was added to the cell plate, and the cell plate was incubated at room temperature for 10 minutes to stabilize the luminescence signal. The signal was read using the Envision multimode plate reader.
(§3) The raw data were converted to inhibition rates using the equation (Sample-Min)/(Max-Min)×100%. The IC50 value was obtained by fitting the data to a four-parameter curve (using log(inhibitor) vs. response -- Variable slope model in GraphPad Prism). Table 1 provides the inhibitory activity of the compounds of the present application against T-47D cell proliferation.

[2] = target: T1, CDK2/cyclin E1 (Homo sapiens, UniProt P24941); assay: In vitro CDK2/cyclinE enzyme activity assay (TR-FRET); type: biochemical; settings: CDK2/cyclin E1, 1 mM ATP, 120 min at 25 °C
T1 construct: purchased SignalChem
Protocol: CDK2/cyclin E1 was purchased from SignalChem. Ulight-4E-BP1 peptide, Eu-anti-phospho-tyrosine antibody, and 1X detection buffer solution were purchased from PerkinElmer. High-purity adenosine triphosphate (ATP) was purchased from Promega. Ethylenediaminetetraacetic acid (EDTA) was purchased from Sigma. Nivo multimode plate reader (PerkinElmer) was used.
Preparation of Kinase Buffer Solution: The kinase buffer solution consisted 50 mM HEPES, 1 mM EDTA, 10 mM MgCl2, and 0.01% Brij-35, with pH of 7.4. 2.38 g HEPES, 58 mg EDTA, 406 mg MgCl2, and 20 mg Brij-35 were added to 200 mL buffer, and the pH was adjusted to 7.4.
(§4) The stop solution was prepared by mixing 100 µL of 1 M EDTA stock solution with […] of 1X detection buffer solution and 1725 µL of distilled water.
The enzyme, Ulight-4E-BP1 peptide, ATP, and the inhibitor were diluted using the kinase buffer solution. The Eu-anti-phospho-tyrosine antibody was diluted to a concentration of 8 nM/L using the detection buffer solution. The test compound was serially diluted 5-fold using a multichannel pipette to the 8th concentration, i.e., from 4 µM to 0.0512 nM. The final concentration of DMSO was 4%, and the experiment was set up with duplicate wells. 2.5 µL of each gradient concentration of the inhibitor, 5 µL of CDK2/cyclin E1 enzyme (10 ng), and 2.5 µL of a mixture of substrate and ATP (4 mM ATP, 100 nM Ulight-4E-BP1 peptide) were added to a microplate, resulting in a final concentration gradient of the compound from 1 µM to 0.0128 nM, with final ATP and substrate concentrations of 1 mM and 25 nM, respectively. The reaction system was incubated at 25 °C for 120 minutes. After the reaction, 5 µL of the stop solution was added to each well, and further reacted at 25 °C for 5 minutes to terminate the reaction. Then 5 µL of Eu-anti-phospho-tyrosine antibody dilution was added to each well, and the mixture was reacted at 25 °C for 60 minutes. Data were collected using the PerkinElmer Nivo multimode plate reader in TR-FRET mode (excitation wavelength: 320 nm; emission wavelengths: 615 nm and 665 nm).
The raw data were converted to inhibition rates according to the equation (Sample-Min)/(Max-Min)×100%. The IC50 value was obtained by fitting the data to a four-parameter curve (using log(inhibitor) vs. response -- Variable slope model in GraphPad Prism).

[3] = target: T2, CDK1/cyclin B1 (Homo sapiens, UniProt P06493); assay: In vitro CDK1/cyclin B1 enzyme activity assay (TR-FRET); type: biochemical
T2 construct: purchased Carna Biosciences
T2 sequence (P06493 whole entry): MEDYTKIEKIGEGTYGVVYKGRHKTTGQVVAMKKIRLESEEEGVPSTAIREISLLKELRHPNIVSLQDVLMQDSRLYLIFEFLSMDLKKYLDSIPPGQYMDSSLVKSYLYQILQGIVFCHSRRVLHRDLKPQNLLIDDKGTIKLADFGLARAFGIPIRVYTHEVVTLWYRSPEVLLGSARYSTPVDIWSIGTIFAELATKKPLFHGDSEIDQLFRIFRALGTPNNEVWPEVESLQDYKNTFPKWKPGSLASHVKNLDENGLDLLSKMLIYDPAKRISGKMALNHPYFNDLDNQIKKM
T2 sequence (P14635 whole entry partner): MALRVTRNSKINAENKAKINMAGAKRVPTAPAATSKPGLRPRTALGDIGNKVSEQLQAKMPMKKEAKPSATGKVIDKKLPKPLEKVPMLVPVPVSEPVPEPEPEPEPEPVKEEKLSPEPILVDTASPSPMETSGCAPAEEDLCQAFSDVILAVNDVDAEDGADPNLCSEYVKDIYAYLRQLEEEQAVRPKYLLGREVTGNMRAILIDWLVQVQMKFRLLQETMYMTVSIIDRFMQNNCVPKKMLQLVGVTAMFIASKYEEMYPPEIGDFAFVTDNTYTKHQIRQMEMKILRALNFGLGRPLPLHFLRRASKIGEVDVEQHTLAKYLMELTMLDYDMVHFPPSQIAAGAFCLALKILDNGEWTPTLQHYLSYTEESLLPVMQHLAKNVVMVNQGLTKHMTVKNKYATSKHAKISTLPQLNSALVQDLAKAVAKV
Protocol: CDK1/cyclin B1 was purchased from Carna Biosciences. Ulight-4E-BP1 peptide, Eu-anti-phospho-tyrosine antibody, and 1X detection buffer were purchased from PerkinElmer. High-purity ATP was purchased from Promega. EDTA was purchased from Sigma. Nivo multimode plate reader (PerkinElmer) was used.
Preparation of Kinase Buffer Solution: The kinase buffer solution consisted 50 mM HEPES, 1 mM EDTA, 10 mM MgCl2, and 0.01% Brij-35, with pH of 7.4.
as §4
The enzyme, Ulight-4E-BP1 peptide, ATP, and the inhibitor were diluted using the kinase buffer solution.
The Eu-anti-phospho-tyrosine antibody was diluted to a concentration of 8 nM/L using the detection buffer solution.
The final concentration of DMSO was 4%, and the experiment was set up with duplicate wells. […] The reaction system was incubated at 25 °C for 60 minutes. After the reaction, 5 µL of the stop solution was added to each well, and further reacted at 25 °C for 5 minutes to terminate the reaction. Then 5 µL of Eu-anti-phospho-tyrosine antibody dilution was added to each well, and the mixture was incubated at 25 °C for 60 minutes.
The IC50 value was obtained by fitting the data to a four-parameter curve (using log(inhibitor) vs. response -- Variable slope model in GraphPad Prism).

[4] = system: OVCAR-3 cells; assay: In vitro OVCAR-3 cell viability assay (CellTiter-Glo); type: cell-based; settings: Homo sapiens, OVCAR-3, 168 h, 7 days incubation
Protocol: as §1, with “OVCAR-3” for “T-47D”
OVCAR-3 cells were seeded into a white 384-well plate, with 40 µL of cell suspension containing 300 OVCAR-3 cells per well. The cell plate was incubated overnight in a CO2 incubator.
as §2, with “the” for “the Envision”
10 µL per well of CellTiter-Glo reagent was added to the cell plate, and the cell plate was incubated at room temperature for 10 minutes to stabilize the luminescence signal. The signal was read using the multimode plate reader.
as §3, with “OVCAR-3” for “T-47D”

[5] = Pharmacokinetic study, oral and intravenous administration in mice; parameters: species or system ICR mice; settings: mouse, in vivo, ICR male mice; for AUC(0-t): read-out: Area under plasma concentration-time curve AUC0-last
Protocol: This study used ICR male mice as test animals. The plasma concentrations of the test compounds and the reference compound in mice were quantitatively determined at different time points using the LC-MS/MS method following intravenous injection or oral administration to evaluate the pharmacokinetic characteristics of the test compounds in mice.
ICR mice (male, 20-30 g, 6-8 weeks old, Beijing Charles River).
A clear solution of the test compound was administered to ICR mice (fasted overnight or fed) via tail vein injection or oral gavage. For intravenous injection, blood samples (50 µL) were collected via cheek puncture at 0 h (pre-dose) and at 0.083, 0.25, 0.5, 1, 2, 4, 6, 8, and 24 h post-dose into anticoagulant tubes containing sodium heparin. The mixtures were thoroughly vortexed at 4 °C and centrifuged at 6000 rpm for 3 minutes. For oral gavage, blood samples were collected via cheek puncture at 0 h (pre-dose) and at 0.083, 0.25, 1, 2, 4, 6, 8, and 24 h post-dose into anticoagulant tubes containing sodium heparin. The mixtures were vortexed thoroughly, and centrifuged at 6000 rpm for 3 minutes. Plasma drug concentrations were determined using the LC-MS/MS method. Pharmacokinetic parameters were calculated using Phoenix WinNonlin 8.2.0 pharmacokinetic software with a non-compartmental model and linear-logarithmic trapezoidal rule.

[6] = CDK1/cyclin B1, 1 mM ATP, 60 min at 25 °C, Table 1, read-out: CDK1 IC50
[7] = exact values stated in the text below Table 1, read-out: IC50 against CDK1

| SMILES | pIC50 [1] | pIC50 [2] | pIC50 [3, 6] | pIC50 [4] | pIC50 [3, 7] | Vd ([5]; intravenous administration, 5 mg/Kg, read-out: Apparent volume of distribution Vdss) [L/kg] | AUC(0-t) ([5]; intravenous administration, 5 mg/Kg) [ng·h/mL] | clearance ([5]; intravenous administration, 5 mg/Kg, read-out: Clearance CL) [mL/min/kg] | half-life ([5]; intravenous administration, 5 mg/Kg, read-out: Half-life T1/2 (converted)) [h] | bioavailability ([5]; oral 30 mg/Kg vs intravenous 5 mg/Kg, read-out: Bioavailability F) [%] | AUC(0-t) ([5]; oral administration, 30 mg/Kg) [ng·h/mL] | Cmax ([5]; oral administration, 30 mg/Kg, read-out: Peak concentration Cmax) [ng/mL] | Tmax ([5]; oral administration, 30 mg/Kg, read-out: Time to peak Tmax) [h] |
| --- | --- | --- | --- | --- | --- | --- | --- | --- | --- | --- | --- | --- | --- |
| C=NOCc1nn2ccnc(Nc3cc([C@H]4CC[C@@H](OC(=O)NC(C)C)C4)[nH]n3)c2c1F [Compound 4] | 6.62 | 8.12 | < 6.00 | 7.12 | – | – | – | – | – | – | – | – | – |
| CONCc1nn2ccnc(Nc3cc([C@H]4CC[C@@H](OC(=O)NC(C)C)C4)[nH]n3)c2c1C [Formate salt of compound 1] | 6.53 | 8.42 | < 6.00 | 7.05 | 5.72 | – | – | – | – | – | – | – | – |
| CNOCc1nn2ccnc(Nc3cc([C@H]4CC[C@@H](OC(=O)NC(C)C)C4)[nH]n3)c2c1F [Hydrochloride salt of Compound 7] | 6.31 | 8.02 | < 6.00 | 6.85 | < 5.00 | – | – | – | – | – | – | – | – |
| CNOCc1nn2ccnc(Nc3cc([C@H]4CC[C@@H](OC(=O)NC(C)C)C4)[nH]n3)c2c1C [Hydrochloride salt of compound 3] | 6.42 | 8.38 | < 6.00 | 6.73 | 5.87 | – | – | – | – | – | – | – | – |
| COCc1cc(C(=O)Nc2cc([C@H]3CC[C@@H](OC(=O)NC(C)C)C3)[nH]n2)n(C)n1 [PF-07104091, reference compound] | 6.42 | – | 6.28 | 6.76 | – | 11.8 | 1640 | 50.3 | 2.68 | 76.2 | 7520 | 6320 | 0.25 |

Source: EP4653431A1, “PYRAZOLE DERIVATIVE, AND PHARMACEUTICALLY ACCEPTABLE SALT, STEREOISOMER, PHARMACEUTICAL COMPOSITION AND USE THEREOF” (Starg (Wuhan) Pharmaceutical Technology Co., Ltd, priority 2023, dated 2024)
